Values after ≈ are worked out from the molar mass of the structure shown.

The record followed here is ChEMBL document CHEMBL1150715, “Puupehenone, a cytotoxic metabolite from a deep water marine sponge, Stronglyophora hartmani” (J Nat Prod, 1987).

The test system of experiment [1] is P388. Kind of experiment: Cytotoxicity against mouse P388 cells. Type of experiment: functional, cell-based.
Experiment [2] concerns A549. Nature of the experiment: Cytotoxicity against human A549 cells. Type of experiment: functional, cell-based.
Experiment [3] relates to HCT-8. Nature of the experiment: Cytotoxicity against human HCT8 cells. Format: functional, cell-based.
The subject of experiment [4] is MCF7. Nature of the experiment: Cytotoxicity against human MCF7 cells. Format: functional, cell-based.
Experiment [5] concerns P388. Nature of the experiment: In vivo cytotoxicity against mouse P388 cells at 25 mg/kg administered daily for 9 days relative to control. Type of experiment: functional.
The test system of experiment [6] is Candida albicans. Kind of experiment: Antifungal activity against Candida albicans. Format: functional.

For `CC1(C)CCC[C@]2(C)[C@H]3C=C4C=C(O)C(=O)C=C4O[C@@]3(C)CC[C@@H]12` [PUUPEHENONE], the IC50 worked out at 1 µg/mL (≈ 3.04 µM) in experiment [1], 0.1 µg/mL (≈ 0.304 µM) in experiment [2], 1 µg/mL (≈ 3.04 µM) in experiment [3] and 0.1 µg/mL (≈ 0.304 µM) in experiment [4]. The T/C in experiment [5] is 119%. Besides, 3 µg/mL (≈ 9.13 µM) was the least that counted as inhibitory in experiment [6] (MIC).
